Reference: patent publication US20240158386A1, “BENZOXAZOLONE INHIBITORS OF INFLAMMASOMES” (ICAHN SCHOOL OF MEDICINE AT MOUNT SINAI, priority 2021, published 2024)
Like-named read-outs stand apart in the source and are kept apart here.

Key:
microglia cultures = experiment: Cell viability assay (CytoTox 96 cytotoxicity); type: cell-based, murine
Protocol: (§1) NLRP3 inflammasome activation assay. Primary microglia cultures were incubated with the compounds that inhibited IL-1β production in THP1 macrophages. Cells pretreated with 100 μM of the compounds—or with the same DMSO volume, in the case of control samples—were primed with 400 ng/ml LPS for 3 hours, and activated with 4.5 mM ATP for 45 minutes or […] nigericin for 1 hour. Dose-response curves were conducted by incubating microglia cultures with different concentrations of the selected compounds, ranging from 0.001 to 100 μM, 1 hour before NLRP3 activation with LPS and ATP. Supernatants were collected for IL-1β and toxicity assessments.
Cell viability assays. The cytotoxic effect of the compounds identified by in-vitro screening was assayed with the Cyto Tox 96® NonRadioactive Cytotoxicity Assay (Promega), following the recommendations of the manufacturer.

TNF-α production = TNF-α production in cell culture supernatant (ELISA); type: cell-based, mouse; settings: FIG. 3B
Protocol: (§2) Cytokine quantification. IL-1β in cell supernatants and brain tissue samples—after the different treatment groups—was quantified using the Mouse IL-1 beta/IL-1F2 DuoSet ELISA kit (R&D systems), IL-6 in cell culture supernatant was measured through the Mouse IL-6 ELISA kit (ThermoFisher), TNF-α in cell culture supernatants was determined using the Mouse TNF-alpha DuoSet ELISA (R*D systems), and IL-18 in brain tissue was measured through the IL-18 Mouse ELISA Kit (Invitrogen) following the manufacturers' recommended protocol. IL-1β precursor and cleaved IL-1β in the FC of mice treated with vehicles, LPS, or C77-LPS was assessed by western blot. All samples were run in technical duplicates.

NLRP3 inflammasome = target: T1, NLRP3 inflammasome (Mus musculus, UniProt Q8R4B8); experiment: NLRP3 inflammasome activation assay: IL-1β release by primary microglia after LPS and ATP; type: cell-based, murine
T1 construct: endogenous in cells; host or cells: primary microglia from cortices of 2-3 day old WT mouse pups
Protocol: Murine primary microglia. Mixed cortical cultures were prepared as previously described (Bronstein, R. et al. J. Vis. Exp. JoVE 50647 (2013) doi:10.3791/50647). Briefly, cortices from 2-3 days old, WT, or NLRP3 KO pups were isolated, digested, and seeded at a density of 8 cortices per 10 ml petri dish. Every three days, the medium was replaced by fresh culture medium (DMEM, 10% FBS, 1% penicillin-streptomycin). After three weeks, mixed glial cultures had reached confluence, and microglia cells were isolated by mild trypsinization as previously described (Saura, J. et al. Glia 44, 183-189 (2003)). In brief, cells were washed with culture medium without FBS and treated with a mixture of trypsin 0.25% (without EDTA) and DMEM-F12 medium in a 1:3 proportion. After an incubation period of approximately 40 min, an intact layer of mixed glial cells detached, leaving microglia attached firmly to the bottom of the Petri-dish. Pure microglia were then isolated by 15 min incubation with trypsin (0.05%)-EDTA at 37° C., followed by gentle shaking. Cells were counted and seeded at the desired density, typically 7.5·10^4 cells/well in 24 well-plates.
as §1, §2

[1] = tested on: ASC specks following NLRP3 activation; experiment: ASC speck formation / ASC oligomerization in m-Cerulean ASC labeled macrophages; type: cell-based, murine; settings: NLRP3 activation with LPS and ATP or HMGB1 and ATP (FIG. 3F)
Protocol: m-Cerulean ASC labeled macrophages. NLRP3 Knock Out immortalized murine macrophages, stably expressing m-Cerulean-ASC, and NLRP3-Flag were a kind donation of Prof. Eicke Latz, (Institute of Innate Immunity, University of Bonn, Germany). Murine macrophages were maintained in high glucose DMEM medium supplemented with 10% FBS, 1% sodium pyruvate, and passaged every 2-3 days, before reaching confluence.
For ASC speck formation evaluation, murine macrophages were seeded in 96 well SCREENSTAR black microplates with clear base, 24 hours before stimulation. Then, cells were incubated for 1 hour with different concentrations of the inhibitors, or with the same DMSO volume for positive and negative controls for NLRP3 activation—DMSO-LPS-ATP or only DMSO, respectively. 0.5 μM MCC950 was used as a positive control for inhibition of NLRP3-mediated ASC oligomerization. NLRP3 activation was induced through treatment with 250 ng/ml LPS for 2.5 hours, followed by addition of 4.5 mM ATP for 45 min. Cells were then fixed and counterstained in a single step, as previously described (Stutz, A. et al. ASC Speck Formation as a Readout for Inflammasome Activation. in The Inflammasome (eds. De Nardo, C. M. & Latz, E.) vol. 1040 91-101 (Humana Press, 2013).). For that, a stock solution of DRAQS in formaldehyde was used, being the final concentrations 1% formaldehyde and 2.5 μM DRAQ5.
ASC oligomerization determination. […] ASC specks in cells pretreated with C75, C77, C78, and C97, before NLRP3 activation (as above indicated), were visualized with a widefield Leica DMi8 fluorescence microscope, using the 20× objective. […] For image analysis and speck quantification, ImageJ was used https://imagej.nih.gov/ij/index.html. Speck and nuclei quantification was performed as previously described in Stutz et al. When required (overlapping nuclei), the watershed separation algorithm was used to separate the particles. […] The rate of speck positive cells was calculated by normalizing the number of speck positive cells to the number of nuclei. […]

T1 sequence (Q8R4B8 whole entry): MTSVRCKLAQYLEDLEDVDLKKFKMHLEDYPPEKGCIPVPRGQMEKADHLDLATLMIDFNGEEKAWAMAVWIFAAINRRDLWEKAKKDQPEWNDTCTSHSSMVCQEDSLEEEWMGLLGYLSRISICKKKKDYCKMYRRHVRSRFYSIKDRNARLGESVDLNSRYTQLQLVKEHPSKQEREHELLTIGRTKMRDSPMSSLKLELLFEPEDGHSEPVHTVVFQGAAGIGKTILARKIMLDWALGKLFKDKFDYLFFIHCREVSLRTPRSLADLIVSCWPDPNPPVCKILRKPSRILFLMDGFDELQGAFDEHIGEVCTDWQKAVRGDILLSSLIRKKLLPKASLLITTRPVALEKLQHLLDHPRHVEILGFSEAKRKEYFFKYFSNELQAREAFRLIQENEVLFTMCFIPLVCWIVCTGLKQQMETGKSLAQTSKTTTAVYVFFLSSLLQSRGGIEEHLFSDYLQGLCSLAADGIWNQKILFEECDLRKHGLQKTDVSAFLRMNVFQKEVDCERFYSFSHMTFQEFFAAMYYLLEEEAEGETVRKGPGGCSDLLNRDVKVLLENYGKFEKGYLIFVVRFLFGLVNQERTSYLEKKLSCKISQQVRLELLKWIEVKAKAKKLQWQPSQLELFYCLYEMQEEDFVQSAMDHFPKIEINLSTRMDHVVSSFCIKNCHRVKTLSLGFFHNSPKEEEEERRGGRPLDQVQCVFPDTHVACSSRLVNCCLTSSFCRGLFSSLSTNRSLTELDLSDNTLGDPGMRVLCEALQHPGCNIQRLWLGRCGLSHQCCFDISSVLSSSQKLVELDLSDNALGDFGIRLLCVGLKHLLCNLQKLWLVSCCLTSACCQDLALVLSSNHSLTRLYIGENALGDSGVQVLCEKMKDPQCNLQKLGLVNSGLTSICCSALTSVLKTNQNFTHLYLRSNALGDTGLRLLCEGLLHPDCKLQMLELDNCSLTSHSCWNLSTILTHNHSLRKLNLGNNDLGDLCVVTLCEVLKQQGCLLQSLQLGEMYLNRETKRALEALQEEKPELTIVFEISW

concentrations exerting inhibitory effects on NLRP3-mediated IL-1β (NLRP3 inflammasome; FIG. 2C, microglia, LPS and ATP): ≥ 100 nM
IC50 (NLRP3 inflammasome; FIG. 3A, read-out: NLRP3 IC50): 3.54 ± 1.3 µM
[Cx] to reach 100% of inhibition (NLRP3 inflammasome; IL-1β release, microglia, LPS and ATP): lower than 25 μM
IC50 (NLRP3 inflammasome; IL-1β release, microglia, LPS and ATP, nonlinear fit of dose-response, read-out: IC50): 4.1 ± 2.1 µM
SMILES: O=C(Cn1c(=O)oc2ccccc21)NCc1cncc(-c2ccsc2)c1 [Compound C77]
toxicity on microglia cultures (microglia cultures; 50 μM): significantly reduced the viability of the culture
toxicity on microglia cultures (microglia cultures; concentrations lower than 50 μM): did not show significant toxicity levels
inhibition of TNF-α production (TNF-α production): did not inhibit
inhibition of IL-1β release upon NLRP3 activation (NLRP3 inflammasome; 100 μM compound, microglia, LPS and ATP): inhibited NLRP3 with statistical significance
concentrations with observable reduction of speck positive cells [1]: ≥ 10 nM
